Experimental data from ChEMBL document CHEMBL1153683, “Triply-convergent synthesis of two sets of homochiral cyclopent[a]indene carbacyclin analogs” (Bioorg Med Chem Lett, 1991).

organism: Homo sapiens; assay: Compound was evaluated for the inhibition of collagen-induced platelet aggregation; type: functional

Q: For `O=C(O)Cc1ccc2c(c1)[C@H]1C[C@@H](O)[C@H](CC[C@@H](O)C3CCCCC3)[C@H]1C2`, which IC50 is on record?
A: 330 nM

Q: With `O=C(O)CCc1ccc2c(c1)[C@H]1C[C@@H](O)[C@H](CC[C@@H](O)C3CCCCC3)[C@H]1C2` as the molecule, how does the IC50 read?
A: 2200 nM

Q: Which IC50 does the source give for `O=C(O)CCc1ccc2c(c1)[C@H]1C[C@@H](O)[C@H](/C=C\[C@@H](O)C3CCCCC3)[C@H]1C2` here?
A: > 100000 nM

Q: Which IC50 does the source give for `O=C(O)Cc1ccc2c(c1)[C@H]1C[C@@H](O)[C@H](/C=C\[C@@H](O)C3CCCCC3)[C@H]1C2` here?
A: > 100000 nM

Q: How did the IC50 turn out when `O=C(O)Cc1ccc2c(c1)[C@H]1C[C@@H](O)[C@H](C#C[C@@H](O)C3CCCCC3)[C@H]1C2` was run?
A: 180 nM

Q: Which IC50 does the source give for `O=C(O)CCc1ccc2c(c1)[C@H]1C[C@@H](O)[C@H](C#C[C@@H](O)C3CCCCC3)[C@H]1C2` here?
A: 330 nM
